US5059624A, “Guanidine derivatives having hypotensive activity, composition containing them and process for obtaining them” (Consiglio Nazionale Delle Ricerche, priority 1988, dated 1991)
Like-named read-outs stand apart in the source and are kept apart here.

What was measured:
cardiovascular responses = assay: Interaction and pretreatment experiments with diguanido-II (cardiovascular and respiratory responses); type: in vivo
[1] = Lethal dose 50 (LD50) through i.p. route in mice; conditions: mouse, in vivo, ip
Description: The lethal dose 50 (LD50) of guanido-I through i.p. route in mice turned out to be 57 mg±3.6 per kg.
The lethal dose 50 (LD50) of the diguanido-II through i.p. route in mice, turned out to be 7 mg±0.6 per kg.

## COc1ccc([C@@H]2[C@@H](C(=O)NCCCCNC(=N)NCC=C(C)C)[C@@H](C(=O)NCCCCNC(=N)NCC=C(C)C)[C@@H]2c2ccc(OC)c(OC)c2)cc1OC [diguanido-II]
Cardiovascular responses; previous treatment with Hexameton (ganglioplegic)
  cardiovascular responses after previous treatment with Hexameton: caused an increase in the cardiovascular responses
Cardiovascular responses; previous treatment with diguanido-II, agonists i.v., linear with agonist dose
  cardiovascular responses to acetylcholine and isoproterenol after previous treatment: increased the cardiovascular responses to administration, through i.v. route, of acetylcholine and isoproterenol
Cardiovascular responses; previous treatment with diguanido-II, hypertensive doses of agonists
  cardiovascular responses to nor-adrenaline and adrenaline after previous treatment: decreased the cardiovascular responses induced by hypertensive doses of nor-adrenaline and of adrenaline
Male Wistar rats; 50 μg/kg i.v.
  Δ AF: +18.8 ± 3.40 ml/min
  Δ AF %: +43 ± 3%
  Δ AP % DIAST: +11.0 ± 1.7%
  Δ AP % SYST: +15.0 ± 2.7%
  Δ AP DIAST: +9.8 ± 1.7 mmHg
  Δ AP SYST: +17.2 ± 2.4 mmHg
  Δ HR: -9 ± 3 beats/min
  Δ HR %: -3 ± 1%
  Δ SV: +72.6 ± 5 μl
  Δ SV %: +61 ± 5%
  Δ TV: +13 ± 3%
  Δ dp/dt: +1070 ± 90 mmHg/sec
  Δ dp/dt %: +17 ± 4%
Male Wistar rats; 100 μg/kg i.v.
  Δ AF: +10.8 ± 1.20 ml/min
  Δ AF %: +25 ± 1%
  Δ AP % DIAST: +11.0 ± 1.1%
  Δ AP % SYST: +10.0 ± 2.6%
  Δ AP DIAST: +10.2 ± 1.1 mmHg
  Δ AP SYST: +11.7 ± 2.5 mmHg
  Δ HR: -10 ± 1 beats/min
  Δ HR %: -3 ± 1%
  Δ SV: +19.8 ± 6 μl
  Δ SV %: +17 ± 6%
  Δ TV: +4 ± 1%
  Δ dp/dt: +1129 ± 82 mmHg/sec
  Δ dp/dt %: +18 ± 1%
Male Wistar rats; 200 μg/kg i.v.
  Δ AF: -13.8 ± 4.20 mL/min
  Δ AF %: -32 ± 4%
  Δ AP % DIAST: -9.0 ± 1.8%
  Δ AP % SYST: -13.0 ± 1.4%
  Δ AP DIAST: -13.1 ± 1.8 mmHg
  Δ AP SYST: -14.4 ± 1.4 mmHg
  Δ HR: -13 ± 4 beats/min
  Δ HR %: -4 ± 0.3%
  Δ SV: +23.1 ± 6 μl
  Δ SV %: +19 ± 6%
  Δ TV: +3 ± 2%
  Δ dp/dt: +1369 ± 170 mmHg/sec
  Δ dp/dt %: +21 ± 4%
Male Wistar rats; 400 μg/kg i.v.
  Δ AF: -14.3 ± 5.7 mL/min
  Δ AF %: -33 ± 6%
  Δ AP % DIAST: -18.0 ± 1.4%
  Δ AP % SYST: -18.0 ± 1.9%
  Δ AP DIAST: -17.0 ± 1.4 mmHg
  Δ AP SYST: -19.8 ± 1.9 mmHg
  Δ HR: -16 ± 5 beats/min
  Δ HR %: -5 ± 2%
  Δ SV: -46.2 ± 4 µL
  Δ SV %: -39 ± 4%
  Δ TV: -51 ± 7%
  Δ dp/dt: +2615 ± 181 mmHg/sec
  Δ dp/dt %: +41 ± 5%
Male Wistar rats; 800 μg/kg i.v.
  Δ AF: -25.0 ± 6.1 mL/min
  Δ AF %: -57 ± 6%
  Δ AP % DIAST: -34.0 ± 3.1%
  Δ AP % SYST: -27.0 ± 3.6%
  Δ AP DIAST: -31.2 ± 3.1 mmHg
  Δ AP SYST: -30.0 ± 3.6 mmHg
  Δ HR: -16 ± 5.5 beats/min
  Δ HR %: -5 ± 2%
  Δ SV: -85.8 ± 9 µL
  Δ SV %: -72 ± 9%
  Δ TV: -93 ± 8%
  Δ dp/dt: +3282 ± 269 mmHg/sec
  Δ dp/dt %: +51 ± 7%
Male Wistar rats; 1600 μg/kg i.v.
  Δ AF: -36.1 ± 4.8 mL/min
  Δ AF %: -83 ± 5%
  Δ AP % DIAST: -47.0 ± 6.8%
  Δ AP % SYST: -36.0 ± 5.3%
  Δ AP DIAST: -43.4 ± 6.8 mmHg
  Δ AP SYST: -41.1 ± 5.3 mmHg
  Δ HR: -30 ± 6 beats/min
  Δ HR %: -9 ± 3%
  Δ SV: -97.4 ± 8 µL
  Δ SV %: -82 ± 8%
  Δ TV: -98 ± 5%
  Δ dp/dt: +3676 ± 264 mmHg/sec
  Δ dp/dt %: +57 ± 6%
Male Wistar rats; 3200 μg/kg i.v.
  Δ AF: -41.0 ± 6.9 mL/min
  Δ AF %: -94 ± 7%
  Δ AP % DIAST: -58.0 ± 4.2%
  Δ AP % SYST: -42.0 ± 6.5%
  Δ AP DIAST: -53.0 ± 4.2 mmHg
  Δ AP SYST: -47.8 ± 6.5 mmHg
  Δ HR: -41 ± 8 beats/min
  Δ HR %: -12 ± 3%
  Δ SV: -117.2 ± 8 µL
  Δ SV %: -98 ± 8%
  Δ TV: -100%
  Δ dp/dt: +4708 ± 430 mmHg/sec
  Δ dp/dt %: +73 ± 9%
Male Wistar rats; all dose levels, i.v., rat
  reflected tachycardia (in words): does not cause any reflected tachycardia
Male Wistar rats; all doses, i.v., rat
  bradycardia / reduction of heart rate (in words): reduction of heart rate (HR), at all doses
Male Wistar rats; i.v., rat
  action on the heart inotropism (in words): a constant stimulating action on the heart inotropism
Male Wistar rats; i.v., rat, vs guanido-I
  hypotensive effect with respect to guanido-I (in words): higher pharmacological power as to hypotensive effect
Male Wistar rats; i.v., increase at 50-100 or 50-200 μg/kg, decrease up to 3,200 μg/kg
  effects on AP, AF, RF and TV (in words): biphasic effects on AP, AF, RF and TV
[1]
  LD50: 7 mg/kg
